Earlier results as cited in US7364752B1, “Solid dispersion pharamaceutical formulations” (Abbott Laboratories, priority 1999, dated 2008).

Conditions: PEG solid dispersion formulation

bioavailability: unable to improve the bioavailability
SMILES: O=C1N(Cc2ccc(CO)cc2)[C@H](Cc2ccccc2)[C@H](O)[C@@H](O)[C@@H](Cc2ccccc2)N1Cc1ccc(CO)cc1 [DMP 323]
